Assay results as given in patent US12617779B2, “Self degradation-type CDK9 inhibitor prodrug and liposome encapsulating same” (Sumitomo Pharma Co., Ltd., priority 2021, dated 2026).

Assay: Evaluation of conversion rate to active form in buffer solution (Experimental Example 1)
Format: physicochemical
Settings: for Conversion to Alvocidib at pH 7.4: pH 7.4, 37° C., up to 3 hours
Experimental: For Examples 1 to 16 and Comparative Examples 1 to 14, the attrition rate of the test compound and the conversion rate of the test compound to Alvocidib in a buffer solution were calculated by the following method.
Examples 1 to 16 and Comparative Examples 1 to 14 were each left in buffer solutions adjusted to pH 5.0, 5.5, 6.0, 6.5, 7.0 and 7.4, respectively, at a concentration of 25 umol/L at 37° C. After 0, 0.5, 1, 2 and 3 hours, the residual rates of the compounds of Examples […] and the production rate of Alvocidib were determined by HPLC.
The buffer solutions used at each pH are as follows. • pH 5.0: 50 mM citrate buffer solution (pH 5.0) • pH 5.5: 50 mM citrate buffer solution (pH 5.5) • pH 6.0: 50 mM phosphate buffer solution (pH 6.0) • pH 6.5: 50 mM phosphate buffer solution (pH 6.5) • pH 7.0: 50 mM phosphate buffer solution (pH 7.0) • pH 7.4: 50 mM phosphate buffer solution (pH 7.4)
The measurement conditions for HPLC are as follows.

CNC(=O)O[C@@H]1CN(C)CC[C@@H]1c1c(O)cc(O)c2c(=O)cc(-c3ccccc3Cl)oc12 [Comparative Example 5, reference compound]
Production rate of Alvocidib (pH5.0, 0 hr): 0.0%
Residual rate (pH5.0, 0 hr): 93.9%
Production rate of Alvocidib (pH5.0, 0.5 hr): 0.0%
Residual rate (pH5.0, 0.5 hr): 93.5%
Production rate of Alvocidib (pH5.0, 1 hr): 0.0%
Residual rate (pH5.0, 1 hr): 93.4%
Production rate of Alvocidib (pH5.0, 2 hr): 0.0%
Residual rate (pH5.0, 2 hr): 93.9%
Production rate of Alvocidib (pH5.0, 3 hr): 0.0%
Residual rate (pH5.0, 3 hr): 93.9%
Production rate of Alvocidib (pH5.5, 0 hr): 0.0%
Residual rate (pH5.5, 0 hr): 93.9%
Production rate of Alvocidib (pH5.5, 0.5 hr): 0.0%
Residual rate (pH5.5, 0.5 hr): 93.8%
Production rate of Alvocidib (pH5.5, 1 hr): 0.0%
Residual rate (pH5.5, 1 hr): 93.8%
Production rate of Alvocidib (pH5.5, 2 hr): 0.0%
Residual rate (pH5.5, 2 hr): 94.0%
Production rate of Alvocidib (pH5.5, 3 hr): 0.0%
Residual rate (pH5.5, 3 hr): 93.6%
Production rate of Alvocidib (pH6.0, 0 hr): 0.0%
Residual rate (pH6.0, 0 hr): 93.5%
Production rate of Alvocidib (pH6.0, 0.5 hr): 0.0%
Residual rate (pH6.0, 0.5 hr): 94.0%
Production rate of Alvocidib (pH6.0, 1 hr): 0.0%
Residual rate (pH6.0, 1 hr): 93.5%
Production rate of Alvocidib (pH6.0, 2 hr): 0.0%
Residual rate (pH6.0, 2 hr): 93.9%
Production rate of Alvocidib (pH6.0, 3 hr): 0.0%
Residual rate (pH6.0, 3 hr): 94.0%
Production rate of Alvocidib (pH6.5, 0 hr): 0.0%
Residual rate (pH6.5, 0 hr): 93.5%
Production rate of Alvocidib (pH6.5, 0.5 hr): 0.0%
Residual rate (pH6.5, 0.5 hr): 93.9%
Production rate of Alvocidib (pH6.5, 1 hr): 0.0%
Residual rate (pH6.5, 1 hr): 93.6%
Production rate of Alvocidib (pH6.5, 2 hr): 0.0%
Residual rate (pH6.5, 2 hr): 93.5%
Production rate of Alvocidib (pH6.5, 3 hr): 0.0%
Residual rate (pH6.5, 3 hr): 93.5%
Production rate of Alvocidib (pH7.0, 0 hr): 0.0%
Residual rate (pH7.0, 0 hr): 93.9%
Production rate of Alvocidib (pH7.0, 0.5 hr): 0.0%
Residual rate (pH7.0, 0.5 hr): 93.4%
Production rate of Alvocidib (pH7.0, 1 hr): 0.0%
Residual rate (pH7.0, 1 hr): 93.8%
Production rate of Alvocidib (pH7.0, 2 hr): 0.0%
Residual rate (pH7.0, 2 hr): 93.9%
Production rate of Alvocidib (pH7.0, 3 hr): 0.0%
Residual rate (pH7.0, 3 hr): 93.3%
Production rate of Alvocidib (pH7.4, 0 hr): 0.0%
Residual rate (pH7.4, 0 hr): 93.3%
Conversion to Alvocidib at pH 7.4: slowly converted to Alvocidib
Production rate of Alvocidib (pH7.4, 0.5 hr): 0.0%
Residual rate (pH7.4, 0.5 hr): 93.9%
Production rate of Alvocidib (pH7.4, 1 hr): 0.0%
Residual rate (pH7.4, 1 hr): 93.9%
Production rate of Alvocidib (pH7.4, 2 hr): 0.0%
Residual rate (pH7.4, 2 hr): 93.4%
Production rate of Alvocidib (pH7.4, 3 hr): 0.0%
Residual rate (pH7.4, 3 hr): 93.4%

CCCCCCC(=O)O[C@@H]1CN(C)CC[C@@H]1c1c(O)cc(O)c2c(=O)cc(-c3ccccc3Cl)oc12 [Comparative Example 11, reference compound]
Production rate of Alvocidib (pH7.4, 0 hr): 1.0%
Residual rate (pH7.4, 0 hr): 92.9%
Conversion to Alvocidib at pH 7.4: slowly converted to Alvocidib
Production rate of Alvocidib (pH7.4, 0.5 hr): 1.2%
Residual rate (pH7.4, 0.5 hr): 92.3%
Production rate of Alvocidib (pH7.4, 1 hr): 1.3%
Residual rate (pH7.4, 1 hr): 91.8%
Production rate of Alvocidib (pH7.4, 2 hr): 1.5%
Residual rate (pH7.4, 2 hr): 91.3%
